For one assay, the target named is human PDGFRβ (Homo sapiens (Human), UniProt P09619). The assay can be described thus: PDGFRβ kinase assay (PDGFRβ-HTRF). In kind it is biochemical. The conditions noted are these: 10 μM ATP; some mean values from multiple determinations. The essentials:
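GST-fused human PDGFRβ fragment (R561-L1106) from Sf9 cells was preincubated 15 min with compound in 50 mM HEPES pH 7.5, 10 mM MgCl2, 2.5 mM DTT, 0.01% Triton X-100; substrate was biotinylated poly-Glu,Tyr (4:1).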
For orientation: In TR-FRET formats the signal depends on donor and acceptor labels being close together.

In assay [1] the target is pPDGFRβ in normal human dermal fibroblasts (NHDF) (Homo sapiens (Human), UniProt P09619). The assay can be described thus: Cellular pPDGFRβ inhibition assay. In kind it is cell-based. The conditions noted are these: NHDF stimulated with 50 ng/ml PDGF-BB, 1 h. The method, then: Thereafter, 50 ng/ml recombinant human PDGF-BB (R&D Systems, Cat. No. 220-BB-050) and a dilution series of the test substances to be examined in DMSO were added to the cells. The total volume per well was 100 μl. After incubation under the abovementioned conditions for one hour, the Opti-MEM® I Reduced Serum Medium was tapped out and discarded. Subsequently, the lysis buffer [Phospho PDGFRβ (Tyr751) Assay Whole Cell Lysate Kit, MSD, Cat. No. K150DVD-2] was made up according to the manufacturer's instructions and 70 μl of this mixture per well were added. The lysed cell samples were either stored at −20° C. or analysed immediately after the lysis in a Meso Scale SECTOR® Imager 2400 according to the abovementioned manufacturer's instructions. The measurement data were presented as percentage PDGFRβ stimulation compared to PDGF-BB-stimulated but substance-untreated cells. The IC50 values were calculated by employing the nonlinear regression (curve fit) function of GraphPad Prism 6 (La Jolla, Calif., USA).
Chain of pPDGFRβ in normal human dermal fibroblasts (NHDF) (P09619 33-1106): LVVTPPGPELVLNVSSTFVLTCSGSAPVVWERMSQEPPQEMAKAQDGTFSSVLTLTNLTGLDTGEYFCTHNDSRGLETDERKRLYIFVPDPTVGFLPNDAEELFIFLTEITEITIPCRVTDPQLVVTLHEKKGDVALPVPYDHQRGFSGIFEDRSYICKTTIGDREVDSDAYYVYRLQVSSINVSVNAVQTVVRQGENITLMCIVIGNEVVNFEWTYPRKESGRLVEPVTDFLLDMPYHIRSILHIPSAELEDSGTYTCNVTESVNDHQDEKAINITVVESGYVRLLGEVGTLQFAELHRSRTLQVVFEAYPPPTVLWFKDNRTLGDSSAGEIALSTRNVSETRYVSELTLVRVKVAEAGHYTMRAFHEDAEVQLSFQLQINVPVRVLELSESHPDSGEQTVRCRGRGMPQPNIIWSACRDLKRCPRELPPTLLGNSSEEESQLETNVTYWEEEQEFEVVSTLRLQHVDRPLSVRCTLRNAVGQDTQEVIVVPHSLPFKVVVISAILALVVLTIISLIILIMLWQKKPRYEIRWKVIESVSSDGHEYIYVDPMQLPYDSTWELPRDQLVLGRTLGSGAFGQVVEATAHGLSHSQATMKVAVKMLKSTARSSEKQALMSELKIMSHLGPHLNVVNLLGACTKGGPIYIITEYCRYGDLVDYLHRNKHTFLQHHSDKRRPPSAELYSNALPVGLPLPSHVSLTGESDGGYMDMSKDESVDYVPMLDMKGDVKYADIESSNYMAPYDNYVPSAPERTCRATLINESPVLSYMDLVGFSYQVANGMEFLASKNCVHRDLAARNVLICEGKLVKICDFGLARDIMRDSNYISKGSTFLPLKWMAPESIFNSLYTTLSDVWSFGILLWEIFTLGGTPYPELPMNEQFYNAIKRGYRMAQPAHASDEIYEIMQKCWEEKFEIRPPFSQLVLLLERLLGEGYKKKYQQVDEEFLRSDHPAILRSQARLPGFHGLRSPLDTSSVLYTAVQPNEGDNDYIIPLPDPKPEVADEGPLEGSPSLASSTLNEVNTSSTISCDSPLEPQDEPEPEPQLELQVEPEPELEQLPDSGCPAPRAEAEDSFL

What is called IC50 is the point on the concentration scale where inhibition reaches its midpoint.

Chain of human PDGFRβ (P09619 561-1106): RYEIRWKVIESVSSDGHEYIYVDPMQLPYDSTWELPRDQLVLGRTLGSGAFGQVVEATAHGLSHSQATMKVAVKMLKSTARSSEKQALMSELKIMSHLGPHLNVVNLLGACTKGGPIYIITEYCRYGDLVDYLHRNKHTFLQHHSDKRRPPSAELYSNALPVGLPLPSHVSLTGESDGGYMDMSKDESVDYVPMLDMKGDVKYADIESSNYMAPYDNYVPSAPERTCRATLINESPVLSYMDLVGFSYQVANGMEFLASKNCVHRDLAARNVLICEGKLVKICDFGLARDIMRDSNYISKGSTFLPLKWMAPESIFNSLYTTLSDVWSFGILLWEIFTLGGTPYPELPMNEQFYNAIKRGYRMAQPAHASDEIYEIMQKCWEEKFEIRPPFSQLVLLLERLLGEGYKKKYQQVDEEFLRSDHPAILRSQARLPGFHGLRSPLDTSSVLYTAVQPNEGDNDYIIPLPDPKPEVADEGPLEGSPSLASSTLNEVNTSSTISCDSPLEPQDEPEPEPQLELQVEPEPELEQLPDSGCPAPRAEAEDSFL

For `CCN(C)Cc1ccc2c(c1)NC(=O)c1c(Nc3cc(O)c(C)cc3F)ccnc1N2` [Example 49, 8-{[Ethyl(methyl)amino]methyl}-4-[(2-fluoro-5-hydroxy-4-methylphenyl)amino]-6,11-dihydro-5H-pyrido[2,3-b][1,5]benzodiazepin-5-one], the IC50 was 0.487 nM against human PDGFRβ and 41.1 nM in assay [1].
On the same counts, the results for `CCNCc1ccc2c(c1)NC(=O)c1c(Nc3cc(O)c(C)cc3F)ccnc1N2` [Example 31, 8-[(Ethylamino)methyl]-4-[(2-fluoro-5-hydroxy-4-methylphenyl)amino]-6,11-dihydro-5H-pyrido[2,3-b][1,5]benzodiazepin-5-one] are 1.22 nM and 33.3 nM.

The values above are taken from patent publication US10047096B2, “Substituted pyridobenzodiazepinone-derivatives and use thereof” (Bayer Pharma Aktiengesellschaft, priority 2014, dated 2018).
